Source: US10219513B2, “Safening 4-amino-3-chloro-6-(4-chloro-2-fluoro-3-methoxyphenyl)-5-fluoropyridine-2-carboxylic acid compositions in Brassica species and methods of use thereof” (Dow AgroSciences LLC, priority 2016, dated 2019)
Values joined by “and” are separate entries in the source; they are usually repeats but may differ in a detail not shown here. Equal entries are not always repeated.

Legend:
[1] = system: Brassica alboglabra (kale/Chinese kale, BRSAG); assay: Greenhouse postemergence application, visual injury after 20-22 d, BRSAG; conditions: for Obs % visual injury: BRSAG
Method: (§1) Seeds of the desired test plant species were planted in Sun Gro MetroMix® 306 planting mixture, which typically has a pH of 6.0 to 6.8 and an organic matter content of about 30 percent, in plastic pots with a surface area of 103.2 square centimeters (cm^2). […] The plants were grown for 7-36 days (d) in a greenhouse with an approximate 14-hour (h) photoperiod which was maintained at about 23° C. during the day and 22° C. during the night. Nutrients and water were added on a regular basis and supplemental lighting was provided with overhead metal halide 1000-Watt lamps as necessary. The plants were employed for testing when they reached the second or third true leaf stage.
(§2) An aliquot of formulated benzyl 4-amino-3-chloro-6-(4-chloro-2-fluoro-3-methoxyphenyl)-5-fluoropyridine-2-carboxylate (florpyrauxifen-benzyl; 300 grams active ingredient per liter (g ai/L) suspension concentrate (SC)) was placed in a 25 mL glass vial and diluted in a volume of 1.25% (v/v) aqueous Agri-dex crop oil concentrated to obtain a stock solution. […] The concentrated stock solutions were diluted with an aqueous mixture of 1.25% v/v of aqueous Agri-dex crop oil concentrate to provide the appropriate application rates. Compound requirements are based upon a 12 milliliter (mL) application volume at a rate of 187 liters per hectare (L/ha). Stock solutions of the formulated materials were prepared following the same procedure. Spray solutions of the compound mixtures were prepared by adding the stock solutions to the appropriate amount of dilution solution to form a 12 mL spray solution. Formulated compounds were applied to the plant material with an overhead Mandel track sprayer equipped with 8002E nozzles calibrated to deliver 187 L/ha over an application area of 0.503 square meters (m^2) at a spray height of 18 inches (43 centimeters (cm)) above average plant canopy. Control plants were sprayed in the same manner with the solvent blank.
(§3) The treated plants and control plants were placed in a greenhouse as described above and watered by sub-irrigation to prevent wash-off of the test compounds. After 20-22 d, the condition of the test plants as compared with that of the control plants was determined visually and scored on a scale of 0 to 100 percent where 0 corresponds to no injury and 100 corresponds to complete kill. Colby's equation was used to determine the herbicidal effects expected from the mixtures.
(§4) Benzyl 4-amino-3-chloro-6-(4-chloro-2-fluoro-3-methoxyphenyl)-5-fluoropyridine-2-carboxylate (florpyrauxifen-benzyl, 300 g ai/L SC) was combined in two-, three-, and four-way mixtures with one or more of the following: clopyralid-olamine (as Lontrel™ 35A Herbicidal Concentrate), quinclorac (as Facet 75DF), isoxadifen-ethyl (100 g/L SC), cloquintocet-mexyl (120 g/L EC) or mefenpyr-diethyl (as mefenpyr-diethyl 15WP). The mixtures were applied to kale/Chinese kale (Brassica alboglabra, BRSAG), Juncea canola or brown mustard (Brassica juncea, BRSJU), rutabaga (Brassica napus var. napobrassica, BRSNA), all varieties of canola and oilseed rape (Brassica napus, BRSNN), Nexera™ canola (Brassica napus, BRSNN-NEX), winter oilseed rape (Brassica napus, BRSNW), Roundup Ready® canola (Brassica napus, RR-BRSNN), and turnip or Polish canola (Brassica rapa, BRSRR), and the phytotoxicity of the compositions was measured.
(§5) Colby's equation was used to determine the herbicidal effects expected from the mixtures evaluated in the described trials (Colby, S. R. Calculation of the synergistic and antagonistic response of herbicide combinations. Weeds 1967, 15, 20-22.).
(§6) The following equation was used to calculate the expected activity of mixtures containing two active ingredients, A and B: Expected=A+B−(A×B/100) • A=observed efficacy of active ingredient A at the same concentration as used in the mixture; • B=observed efficacy of active ingredient B at the same concentration as used in the mixture.

[2] = system: Brassica napus (Nexera canola, BRSNN-NEX); assay: Greenhouse postemergence application, visual injury after 20-22 d, BRSNN-NEX; conditions: for Obs % visual injury: BRSNN-NEX
Method: as §1, §2, §3, §4, §5, §6

[3] = system: Brassica napus var. napobrassica (rutabaga, BRSNA); assay: Greenhouse postemergence application, visual injury after 20-22 d, BRSNA; conditions: for Obs % visual injury: BRSNA
Method: as §1, §2, §3, §4, §5, §6

[4] = system: Brassica napus (all varieties of canola and oilseed rape, BRSNN); assay: Greenhouse postemergence application, visual injury after 20-22 d, BRSNN; conditions: for Obs % visual injury: BRSNN
Method: as §1, §2, §3, §4, §5, §6

[5] = system: Brassica napus (Roundup Ready canola, RR-BRSNN); assay: Greenhouse postemergence application, visual injury after 20-22 d, RR-BRSNN; conditions: for Obs % visual injury: RR-BRSNN
Method: as §1, §2, §3, §4, §5, §6

[6] = system: Brassica napus (winter oilseed rape, BRSNW); assay: Greenhouse postemergence application, visual injury after 20-22 d, BRSNW; conditions: for Obs % visual injury: BRSNW
Method: as §1, §2, §3, §4, §5, §6

[7] = system: Brassica rapa (turnip or Polish canola, BRSRR); assay: Greenhouse postemergence application, visual injury after 20-22 d, BRSRR; conditions: for Obs % visual injury: BRSRR
Method: as §1, §2, §3, §4, §5, §6

[8] = system: Brassica juncea (Juncea canola or brown mustard, BRSJU); assay: Greenhouse postemergence application, visual injury after 20-22 d, BRSJU; conditions: for Obs % visual injury: BRSJU
Method: as §1, §2, §3, §4, §5, §6

[9] = clopyralid-olamine 50 g ai/ha alone
[10] = clopyralid-olamine 100 g ai/ha alone
[11] = clopyralid-olamine 200 g ai/ha alone
[12] = postemergence application, greenhouse, application rate (g ai/ha) varies

SMILES: O=C(O)c1nc(Cl)ccc1Cl [Clopyralid-olamine, 2-hydroxyethanaminium 3,6-dichloro-2-pyridinecarboxylate]
- Obs % visual injury ([1]; partner alone 50 g ai/ha): 0%
- Obs % visual injury ([1]; partner alone 100 g ai/ha): 0%
- Obs % visual injury ([1]; partner alone 200 g ai/ha): 0%
- % Visual Injury BRSAG Obs [1, 9]: 0%
- % Visual Injury Obs [1, 9]: 0%
- % Visual Injury BRSAG Obs [1, 10]: 0%
- % Visual Injury Obs [1, 10]: 0%
- % Visual Injury BRSAG Obs [1, 11]: 0%
- % Visual Injury Obs [1, 11]: 0%
- % Visual Injury BRSAG Obs [1, 12]: 0%
- Obs % visual injury ([2]; partner alone 50 g ai/ha): 0%
- Obs % visual injury ([2]; partner alone 100 g ai/ha): 0%
- Obs % visual injury ([2]; partner alone 200 g ai/ha): 0%
- % Visual Injury BRSNN-NEX Obs [2, 9]: 0%
- % Visual Injury Obs [2, 9]: 0%
- % Visual Injury BRSNN-NEX Obs [2, 10]: 0%
- % Visual Injury Obs [2, 10]: 0%
- % Visual Injury BRSNN-NEX Obs [2, 11]: 0%
- % Visual Injury Obs [2, 11]: 0%
- % Visual Injury BRSNN-NEX Obs [2, 12]: 0%
- Obs % visual injury ([3]; partner alone 50 g ai/ha): 0%
- Obs % visual injury ([3]; partner alone 100 g ai/ha): 0%
- Obs % visual injury ([3]; partner alone 200 g ai/ha): 0%
- % Visual Injury BRSNA Obs [3, 9]: 0%
- % Visual Injury Obs [3, 9]: 0%
- % Visual Injury BRSNA Obs [3, 10]: 0%
- % Visual Injury Obs [3, 10]: 0%
- % Visual Injury BRSNA Obs [3, 11]: 0%
- % Visual Injury Obs [3, 11]: 0%
- % Visual Injury BRSNA Obs [3, 12]: 0%
- Obs % visual injury ([4]; partner alone 50 g ai/ha): 2%
- Obs % visual injury ([4]; partner alone 100 g ai/ha): 0%
- Obs % visual injury ([4]; partner alone 200 g ai/ha): 0%
- % Visual Injury BRSNN Obs [4, 9]: 2%
- % Visual Injury Obs [4, 9]: 2%
- % Visual Injury BRSNN Obs [4, 10]: 0%
- % Visual Injury Obs [4, 10]: 0%
- % Visual Injury BRSNN Obs [4, 11]: 0%
- % Visual Injury Obs [4, 11]: 0%
- % Visual Injury BRSNN Obs [4, 12]: 2% and 0%
- Obs % visual injury ([5]; partner alone 50 g ai/ha): 0%
- Obs % visual injury ([5]; partner alone 100 g ai/ha): 0%
- Obs % visual injury ([5]; partner alone 200 g ai/ha): 0%
- % Visual Injury Obs [5, 9]: 0%
- % Visual Injury RR-BRSNN Obs [5, 9]: 0%
- % Visual Injury Obs [5, 10]: 0%
- % Visual Injury RR-BRSNN Obs [5, 10]: 0%
- % Visual Injury Obs [5, 11]: 0%
- % Visual Injury RR-BRSNN Obs [5, 11]: 0%
- % Visual Injury RR-BRSNN Obs [5, 12]: 0%
- Obs % visual injury ([6]; partner alone 50 g ai/ha): 0%
- Obs % visual injury ([6]; partner alone 100 g ai/ha): 0%
- Obs % visual injury ([6]; partner alone 200 g ai/ha): 0%
- % Visual Injury BRSNW Obs [6, 9]: 0%
- % Visual Injury Obs [6, 9]: 0%
- % Visual Injury BRSNW Obs [6, 10]: 0%
- % Visual Injury Obs [6, 10]: 0%
- % Visual Injury BRSNW Obs [6, 11]: 0%
- % Visual Injury Obs [6, 11]: 0%
- % Visual Injury BRSNW Obs [6, 12]: 0%
- Obs % visual injury ([7]; partner alone 50 g ai/ha): 0%
- Obs % visual injury ([7]; partner alone 100 g ai/ha): 0%
- Obs % visual injury ([7]; partner alone 200 g ai/ha): 0%
- % Visual Injury BRSRR Obs [7, 9]: 0%
- % Visual Injury Obs [7, 9]: 0%
- % Visual Injury BRSRR Obs [7, 10]: 0%
- % Visual Injury Obs [7, 10]: 0%
- % Visual Injury BRSRR Obs [7, 11]: 0%
- % Visual Injury Obs [7, 11]: 0%
- % Visual Injury BRSRR Obs [7, 12]: 0%
- Obs % visual injury ([8]; partner alone 50 g ai/ha): 0%
- Obs % visual injury ([8]; partner alone 100 g ai/ha): 0%
- Obs % visual injury ([8]; partner alone 200 g ai/ha): 0%
- % Visual Injury BRSJU Obs [8, 9]: 0%
- % Visual Injury Obs [8, 9]: 0%
- % Visual Injury BRSJU Obs [8, 10]: 0%
- % Visual Injury Obs [8, 10]: 0%
- % Visual Injury BRSJU Obs [8, 11]: 0%
- % Visual Injury Obs [8, 11]: 0%
- % Visual Injury BRSJU Obs [8, 12]: 0%
